The source made the active and inactive calls. No rule for the calls is given here.
Test system: rodent carcinogenicity bioassays, tumor incidence
Assay: CCRIS carcinogenicity studies
Procedure, shortened: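 Archive of carcinogenicity, mutagenicity, tumor promotion and tumor inhibition results drawn from journals, NCI reports and other sources, expert-reviewed; covers 1985-2011 and is no longer updated.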

Measured: carcinogen call

CCN(N=O)C(N)=O
active: Species: HAMSTER, Strain/Sex: SYRIAN/FEMALE, Route: GAVAGE, Dose: 0, 12 MG/ML ((0.2 ML OF A SOLUTION IN ETHYL ACETATE/CORN OIL (1:2)) 1/WK FOR 20 WK (STUDY DURATION: LIFE SPAN), Tumor Site: Type of Lesion: SPLEEN: HEMANGIOSARCOMA, FORESTOMACH: SQUAMOUS CELL CARCINOMA OR PAPILLOMA active; positive | Species: HAMSTER, Strain/Sex: SYRIAN/MALE, Route: GAVAGE, Dose: 0, 12 MG/ML ((0.2 ML OF A SOLUTION IN ETHYL ACETATE/CORN OIL (1:2)) 1/WK FOR 20 WK (STUDY DURATION: 20 WK), Tumor Site: Type of Lesion: SPLEEN: HEMANGIOSARCOMA, FORESTOMACH: SQUAMOUS CELL CARCINOMA OR PAPILLOMA active; positive | Species: HAMSTER, Strain/Sex: SYRIAN/MALE, Route: INTRAPERITONEAL, Dose: 60, 274 MG/KG IN SODIUM CHLORIDE/SODIUM CITRATE ONCE, Tumor Site: Type of Lesion: FORESTOMACH: SQUAMOUS CELL PAPILLOMA active; positive | Species: MOUSE, Route: INTRAPERITONEAL, Tumor Site: Type of Lesion: LIVER, KIDNEY, OVARIES, LUNG, HARDERIAN GLAND, LYMPHATIC SYSTEM, STOMACH, Tumor Site: Type of Lesion: LIVER, KIDNEY, OVARIES, LUNG, HARDERIAN GLAND, LYMPHATIC SYSTEM, STOMACH active; positive | Species: MOUSE, Route: SUBCUTANEOUS, Tumor Site: Type of Lesion: LIVER, LUNG, LYMPHATIC SYSTEM, Tumor Site: Type of Lesion: LIVER, LUNG, LYMPHATIC SYSTEM active; positive | Species: RAT, Route: INTRAPERITONEAL, Tumor Site: Type of Lesion: LYMPHATIC SYSTEM: LYMPHOMA, HEMATOPOIETIC SYSTEM (LEUKEMIA) active; positive | Species: RAT, Route: INTRAVENOUS, Tumor Site: Type of Lesion: BRAIN, NERVOUS SYSTEM (PERIPHERAL), HEMATOPOIETIC SYSTEM (LEUKEMIA), UTERUS, VAGINA, Tumor Site: Type of Lesion: BRAIN, NERVOUS SYSTEM (PERIPHERAL), HEMATOPOIETIC SYSTEM (LEUKEMIA), UTERUS, VAGINA active; positive | Species: RAT, Route: ORAL, Tumor Site: Type of Lesion: BRAIN, NERVOUS SYSTEM (PERIPHERAL), HEMATOPOIETIC SYSTEM (LEUKEMIA), Tumor Site: Type of Lesion: BRAIN, NERVOUS SYSTEM (PERIPHERAL), HEMATOPOIETIC SYSTEM (LEUKEMIA) active; positive | Species: RAT, Route: PRE-NATAL EXPOSURE, Tumor Site: Type of Lesion: NERVOUS SYSTEM active; positive | Species: RAT, Route: SUBCUTANEOUS, Tumor Site: Type of Lesion: BRAIN, NERVOUS SYSTEM (PERIPHERAL) active; positive | Species: RAT, Strain/Sex: F344/FEMALE, Route: GAVAGE, Dose: 0, 6, 12 MG/ML (TOTAL DOSE 0; 0.4; 0.8 MMOL) IN 2 ML ETHYL ACETATE AND CORN OIL (1:2) 2/WK FOR 20 WK (STUDY DURATION: LI, Dose: 0, 6, 12 MG/ML (TOTAL DOSE 0; 0.4; 0.8 MMOL) IN 2 ML ETHYL ACETATE AND CORN OIL (1:2) 2/WK FOR 20 WK (STUDY DURATION: LI, Tumor Site: Type of Lesion: FORESTOMACH: SQUAMOUS CELL CARCINOMA, LUNG: TUMOR, MAMMARY GLAND: TUMOR, Tumor Site: Type of Lesion: FORESTOMACH: SQUAMOUS CELL CARCINOMA, LUNG: TUMOR, MAMMARY GLAND: TUMOR active; positive | Species: RAT, Strain/Sex: F344/FEMALE, Route: GAVAGE, Dose: 0, 6, 12 MG/ML IN 0.2 ML ETHYL ACETATE AND CORN OIL 2/WK FOR 20 WK (STUDY DURATION: LIFESPAN), Dose: 0, 6, 12 MG/ML IN 0.2 ML ETHYL ACETATE AND CORN OIL 2/WK FOR 20 WK (STUDY DURATION: LIFESPAN), Tumor Site: Type of Lesion: FORESTOMACH: TUMOR, LUNG: TUMOR, MAMMARY GLAND: TUMOR, UTERUS: TUMOR, ZYMBAL GLAND: TUMOR, Tumor Site: Type of Lesion: FORESTOMACH: TUMOR, LUNG: TUMOR, MAMMARY GLAND: TUMOR, UTERUS: TUMOR, ZYMBAL GLAND: TUMOR active; positive | Species: RAT, Strain/Sex: F344/FEMALE, Route: INTRAVESICULAR, Dose: 0, 1.2 MG 2/WK FOR 20 WK (STUDY DURATION: LIFETIME), Tumor Site: Type of Lesion: BLADDER: TUMOR active; positive | Species: RAT, Strain/Sex: F344/FEMALE, Route: INTRAVESICULAR, Dose: 0, 2.4 MG 2/WK FOR 14 WK (STUDY DURATION: LIFETIME), Tumor Site: Type of Lesion: BLADDER: TUMOR active; positive | Species: RAT, Strain/Sex: F344/FEMALE, Route: ORAL, Dose: 0, 0.3, 1, 3, 10 PPM IN DRINKING WATER FOR 104 WK (STUDY DURATION: 111 WK), Dose: 0, 0.3, 1, 3, 10 PPM IN DRINKING WATER FOR 104 WK (STUDY DURATION: 111 WK), Tumor Site: Type of Lesion: BRAIN: GLIOMA, UTERUS: ENDOMETRIAL STROMAL POLYP, MAMMARY GLAND: ADENOCARCINOMA, HEMATOPOIETIC SYSTEM: MONONUCLEAR CELL, Tumor Site: Type of Lesion: BRAIN: GLIOMA, UTERUS: ENDOMETRIAL STROMAL POLYP, MAMMARY GLAND: ADENOCARCINOMA, HEMATOPOIETIC SYSTEM: MONONUCLEAR CELL active; positive

Source: PubChem BioAssay AID1259411 (Chemical Carcinogenesis Research Information System (CCRIS), 2018)
